From PubChem BioAssay (NCI)
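1) Cells in 96-well plates. 2) Compound, 48 h, 5 concentrations. 3) Linear interpolation between surrounding doses. 4) Unreached endpoint = highest concentration. At the TGI there is no net growth.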

What was measured:
Assay in all cases: DTP human tumour cell line panel, 48 h
786-0 renal = tested on: 786-0 renal
A498 renal = tested on: A498 renal
A549 NSCLC = tested on: A549 NSCLC
ACHN renal = tested on: ACHN renal
BT-549 breast = tested on: BT-549 breast
CAKI-1 renal = tested on: CAKI-1 renal
CCRF-CEM leukemia = tested on: CCRF-CEM leukemia
COLO 205 colon = tested on: COLO 205 colon
DU-145 prostate = tested on: DU-145 prostate
EKVX NSCLC = tested on: EKVX NSCLC
HCC-2998 colon = tested on: HCC-2998 colon
HCT-116 colon = tested on: HCT-116 colon
HCT-15 colon = tested on: HCT-15 colon
HL-60(TB) leukemia = tested on: HL-60(TB) leukemia
HOP-62 NSCLC = tested on: HOP-62 NSCLC
HS 578T breast = tested on: HS 578T breast
HT29 colon = tested on: HT29 colon
IGROV1 ovarian = tested on: IGROV1 ovarian
K-562 leukemia = tested on: K-562 leukemia
KM12 colon = tested on: KM12 colon
LOX IMVI melanoma = tested on: LOX IMVI melanoma
M14 melanoma = tested on: M14 melanoma
MALME-3M melanoma = tested on: MALME-3M melanoma
MCF7 breast = tested on: MCF7 breast
MDA-MB-231 breast = tested on: MDA-MB-231 breast
MDA-MB-435 = tested on: MDA-MB-435
MDA-N = tested on: MDA-N
MOLT-4 leukemia = tested on: MOLT-4 leukemia
NCI-H23 lung = tested on: NCI-H23 lung
NCI-H460 lung = tested on: NCI-H460 lung
NCI-H522 lung = tested on: NCI-H522 lung
NCI/ADR-RES ovarian = tested on: NCI/ADR-RES ovarian
OVCAR-3 ovarian = tested on: OVCAR-3 ovarian
OVCAR-4 ovarian = tested on: OVCAR-4 ovarian
OVCAR-5 ovarian = tested on: OVCAR-5 ovarian
OVCAR-8 ovarian = tested on: OVCAR-8 ovarian
PC-3 prostate = tested on: PC-3 prostate
RPMI-8226 leukemia = tested on: RPMI-8226 leukemia
RXF 393 renal = tested on: RXF 393 renal
SF-268 CNS = tested on: SF-268 CNS
SF-295 CNS = tested on: SF-295 CNS
SF-539 CNS = tested on: SF-539 CNS
SK-MEL-2 melanoma = tested on: SK-MEL-2 melanoma
SK-MEL-28 melanoma = tested on: SK-MEL-28 melanoma
SK-MEL-5 melanoma = tested on: SK-MEL-5 melanoma
SK-OV-3 ovarian = tested on: SK-OV-3 ovarian
SN12C renal = tested on: SN12C renal
SNB-19 CNS = tested on: SNB-19 CNS
SR leukemia = tested on: SR leukemia
SW-620 colon = tested on: SW-620 colon
T-47D breast = tested on: T-47D breast
TK-10 renal = tested on: TK-10 renal
U251 CNS = tested on: U251 CNS
UACC-257 melanoma = tested on: UACC-257 melanoma
UACC-62 melanoma = tested on: UACC-62 melanoma
UO-31 renal = tested on: UO-31 renal
HOP-92 NSCLC = tested on: HOP-92 NSCLC
NCI-H226 lung = tested on: NCI-H226 lung
SNB-75 CNS = tested on: SNB-75 CNS

CCOC(=O)/C=C1\Nc2ccccc2C12CCc1c([nH]c3ccccc13)C2C(=O)OCC (stereo not given)
TGI (786-0 renal): > 100 µM
TGI (A498 renal): > 100 µM
TGI (A549 NSCLC): > 100 µM
TGI (ACHN renal): > 100 µM
TGI (BT-549 breast): > 100 µM
TGI (CAKI-1 renal): > 100 µM
TGI (CCRF-CEM leukemia): > 100 µM
TGI (COLO 205 colon): 30.2 µM
TGI (DU-145 prostate): > 100 µM
TGI (EKVX NSCLC): > 100 µM
TGI (HCC-2998 colon): > 100 µM
TGI (HCT-116 colon): > 100 µM
TGI (HCT-15 colon): > 100 µM
TGI (HL-60(TB) leukemia): > 100 µM
TGI (HOP-62 NSCLC): > 100 µM
TGI (HS 578T breast): > 100 µM
TGI (HT29 colon): > 100 µM
TGI (IGROV1 ovarian): > 100 µM
TGI (K-562 leukemia): > 100 µM
TGI (KM12 colon): > 100 µM
TGI (LOX IMVI melanoma): > 100 µM
TGI (M14 melanoma): > 100 µM
TGI (MALME-3M melanoma): > 100 µM
TGI (MCF7 breast): > 100 µM
TGI (MDA-MB-231 breast): > 100 µM
TGI (MDA-MB-435): 40.5 µM
TGI (MDA-N): 81 µM
TGI (MOLT-4 leukemia): > 100 µM
TGI (NCI-H23 lung): > 100 µM
TGI (NCI-H460 lung): > 100 µM
TGI (NCI-H522 lung): > 100 µM
TGI (NCI/ADR-RES ovarian): > 100 µM
TGI (OVCAR-3 ovarian): > 100 µM
TGI (OVCAR-4 ovarian): > 100 µM
TGI (OVCAR-5 ovarian): > 100 µM
TGI (OVCAR-8 ovarian): > 100 µM
TGI (PC-3 prostate): > 100 µM
TGI (RPMI-8226 leukemia): 61.9 µM
TGI (RXF 393 renal): > 100 µM
TGI (SF-268 CNS): > 100 µM
TGI (SF-295 CNS): > 100 µM
TGI (SF-539 CNS): > 100 µM
TGI (SK-MEL-2 melanoma): > 100 µM
TGI (SK-MEL-28 melanoma): > 100 µM
TGI (SK-MEL-5 melanoma): > 100 µM
TGI (SK-OV-3 ovarian): > 100 µM
TGI (SN12C renal): > 100 µM
TGI (SNB-19 CNS): > 100 µM
TGI (SR leukemia): > 100 µM
TGI (SW-620 colon): > 100 µM
TGI (T-47D breast): > 100 µM
TGI (TK-10 renal): > 100 µM
TGI (U251 CNS): > 100 µM
TGI (UACC-257 melanoma): > 100 µM
TGI (UACC-62 melanoma): > 100 µM
TGI (UO-31 renal): > 100 µM

CN(C)c1ccc(C(=NNC(=O)c2cc3ccccc3[nH]2)c2ccc(N(C)C)cc2)cc1
TGI (786-0 renal): 19.8 µM
TGI (A498 renal): 26.3 µM
TGI (A549 NSCLC): > 100 µM
TGI (ACHN renal): 24.9 µM
TGI (BT-549 breast): > 44.8 µM
TGI (CAKI-1 renal): 45.7 µM
TGI (CCRF-CEM leukemia): > 25.2 µM
TGI (COLO 205 colon): > 20.7 µM
TGI (DU-145 prostate): > 100 µM
TGI (EKVX NSCLC): > 100 µM
TGI (HCC-2998 colon): 1.48 µM
TGI (HCT-116 colon): > 34.2 µM
TGI (HCT-15 colon): > 100 µM
TGI (HL-60(TB) leukemia): 0.678 µM
TGI (HOP-62 NSCLC): 33.7 µM
TGI (HOP-92 NSCLC): 31.8 µM
TGI (HS 578T breast): 3.74 µM
TGI (HT29 colon): 9.93 µM
TGI (IGROV1 ovarian): 25.9 µM
TGI (K-562 leukemia): > 100 µM
TGI (KM12 colon): > 100 µM
TGI (LOX IMVI melanoma): > 100 µM
TGI (M14 melanoma): 29 µM
TGI (MCF7 breast): > 51 µM
TGI (MDA-MB-231 breast): 12.9 µM
TGI (MDA-MB-435): 0.371 µM
TGI (MDA-N): 1.49 µM
TGI (MOLT-4 leukemia): > 100 µM
TGI (NCI-H226 lung): > 100 µM
TGI (NCI-H23 lung): > 32.9 µM
TGI (NCI-H460 lung): > 100 µM
TGI (NCI-H522 lung): 2.53 µM
TGI (OVCAR-3 ovarian): 1.81 µM
TGI (OVCAR-4 ovarian): > 100 µM
TGI (OVCAR-5 ovarian): > 45.5 µM
TGI (OVCAR-8 ovarian): > 100 µM
TGI (PC-3 prostate): > 66.8 µM
TGI (RXF 393 renal): 15 µM
TGI (SF-268 CNS): 5.31 µM
TGI (SF-295 CNS): 5.52 µM
TGI (SF-539 CNS): 8.04 µM
TGI (SK-MEL-2 melanoma): 3.97 µM
TGI (SK-MEL-5 melanoma): > 100 µM
TGI (SK-OV-3 ovarian): > 87.7 µM
TGI (SN12C renal): > 93.9 µM
TGI (SNB-19 CNS): > 44.5 µM
TGI (SNB-75 CNS): 16.9 µM
TGI (SR leukemia): > 100 µM
TGI (SW-620 colon): > 100 µM
TGI (T-47D breast): > 100 µM
TGI (TK-10 renal): 30.1 µM
TGI (U251 CNS): 14.5 µM
TGI (UACC-257 melanoma): > 100 µM
TGI (UACC-62 melanoma): > 54 µM
TGI (UO-31 renal): > 59.3 µM

N#Cc1c(N)c(-c2ccc(Cl)cc2)c(F)c2ccccc12
TGI (786-0 renal): > 100 µM
TGI (A498 renal): > 100 µM
TGI (A549 NSCLC): > 100 µM
TGI (ACHN renal): > 100 µM
TGI (BT-549 breast): > 100 µM
TGI (CAKI-1 renal): > 100 µM
TGI (COLO 205 colon): > 100 µM
TGI (EKVX NSCLC): > 100 µM
TGI (HCC-2998 colon): > 100 µM
TGI (HCT-116 colon): > 100 µM
TGI (HCT-15 colon): > 100 µM
TGI (HOP-62 NSCLC): > 100 µM
TGI (HOP-92 NSCLC): 59.4 µM
TGI (HS 578T breast): > 100 µM
TGI (HT29 colon): > 100 µM
TGI (IGROV1 ovarian): > 100 µM
TGI (K-562 leukemia): > 100 µM
TGI (KM12 colon): > 100 µM
TGI (LOX IMVI melanoma): > 100 µM
TGI (M14 melanoma): > 100 µM
TGI (MALME-3M melanoma): > 100 µM
TGI (MCF7 breast): > 100 µM
TGI (MDA-MB-231 breast): > 100 µM
TGI (MDA-MB-435): > 100 µM
TGI (MDA-N): > 100 µM
TGI (NCI-H226 lung): > 100 µM
TGI (NCI-H23 lung): > 100 µM
TGI (NCI-H460 lung): > 100 µM
TGI (NCI-H522 lung): > 100 µM
TGI (NCI/ADR-RES ovarian): > 100 µM
TGI (OVCAR-3 ovarian): > 100 µM
TGI (OVCAR-4 ovarian): > 100 µM
TGI (OVCAR-5 ovarian): > 100 µM
TGI (OVCAR-8 ovarian): > 100 µM
TGI (PC-3 prostate): > 100 µM
TGI (RPMI-8226 leukemia): > 100 µM
TGI (RXF 393 renal): 58.3 µM
TGI (SF-268 CNS): > 100 µM
TGI (SF-295 CNS): > 100 µM
TGI (SF-539 CNS): > 100 µM
TGI (SK-MEL-2 melanoma): > 100 µM
TGI (SK-MEL-28 melanoma): > 100 µM
TGI (SK-MEL-5 melanoma): > 100 µM
TGI (SK-OV-3 ovarian): > 100 µM
TGI (SN12C renal): > 100 µM
TGI (SNB-19 CNS): > 100 µM
TGI (SNB-75 CNS): > 100 µM
TGI (SW-620 colon): > 100 µM
TGI (T-47D breast): > 100 µM
TGI (TK-10 renal): > 100 µM
TGI (U251 CNS): > 100 µM
TGI (UACC-257 melanoma): > 100 µM
TGI (UACC-62 melanoma): > 100 µM
TGI (UO-31 renal): > 100 µM

O=C1C=CC(=O)c2c(O)c(N3CCSCC3)c(Cl)c(O)c21
TGI (A549 NSCLC): 1.79 µM
TGI (ACHN renal): 1.48 µM
TGI (CAKI-1 renal): 1.73 µM
TGI (DU-145 prostate): 2.02 µM
TGI (HCT-116 colon): 1.03 µM
TGI (HOP-92 NSCLC): 2.21 µM
TGI (HS 578T breast): 2.18 µM
TGI (HT29 colon): 1.47 µM
TGI (IGROV1 ovarian): 2 µM
TGI (KM12 colon): 1.38 µM
TGI (LOX IMVI melanoma): 0.362 µM
TGI (M14 melanoma): 1.05 µM
TGI (MALME-3M melanoma): 1.34 µM
TGI (MDA-MB-231 breast): 1.03 µM
TGI (MDA-MB-435): 1.94 µM
TGI (MDA-N): 1.48 µM
TGI (MOLT-4 leukemia): 3.82 µM
TGI (NCI-H226 lung): 1.82 µM
TGI (NCI-H23 lung): 0.689 µM
TGI (NCI-H460 lung): 1.71 µM
TGI (NCI-H522 lung): 1.29 µM
TGI (OVCAR-4 ovarian): 1.77 µM
TGI (RXF 393 renal): 0.781 µM
TGI (SF-268 CNS): 1.74 µM
TGI (SK-MEL-2 melanoma): 0.603 µM
TGI (SK-MEL-28 melanoma): 2.16 µM
TGI (SK-MEL-5 melanoma): 1.69 µM
TGI (SK-OV-3 ovarian): 4 µM
TGI (SR leukemia): 1.24 µM
TGI (SW-620 colon): 0.548 µM
TGI (T-47D breast): 2.29 µM
TGI (TK-10 renal): 1.56 µM
TGI (UACC-257 melanoma): 2.88 µM
TGI (UACC-62 melanoma): 1.75 µM
TGI (UO-31 renal): 1.81 µM
